# Structures can show the parent of a compound that is named as a salt. Where two headings read alike, the source gives them in different places.
# Test system: P. falciparum infected erythrocytes
# Assay: P. falciparum growth inhibition assay ([3H]hypoxanthine incorporation)
# Format: cell-based, Plasmodium falciparum
# Procedure: P. falciparum Growth Inhibition Assay.
# The sensitivity of P. falciparum infected erythrocytes to the compound was determined in duplicate using the [3H]hypoxanthine incorporation method with an inoculum of 0.5% parasitemia (ring stage) and 2% hematocrit. The parasites were grown in RPMI 1640, 25 mM HEPES and supplemented with 5% Albumax. Plates are incubated at 37° C., 5% CO2, 5% O2, 90% N2. After 24 h of incubation, [3H]hypoxanthine is added and plates are incubated for another 24 h. After that period, plates are harvested on a glass fiber filter using a TOMTEC Cell harvester 96. Filters are dried and melt on scintillator sheets and the bound radioactivity is quantified by use of a Wallac Microbeta Trilux (Model 1450 LS—Perkin Elmer). IC50s are determined using Grafit 7 program (Grafit program; Erithacus Software, Horley, Surrey, United Kingdom).
# Each example compound was tested generally in accordance with the above-mentioned assay and the PfIC50 value for each compound is reported in the Table below and according to the following: […]
# [1] = [3H]hypoxanthine incorporation, 0.5% parasitemia, 2% hematocrit, 48 h, read-out: PfIC50 Media
# [2] = Plasmodium falciparum, Erythrocyte, [3H]hypoxanthine incorporation, 0.5% parasitemia, 2% hematocrit, 48 h, read-out: PfIC50 Media
# [3] = Plasmodium falciparum, Erythrocyte, read-out: average PfIC50
SMILES,IC50 [2] [µM],IC50 [3] [µM],further results
"CC(O)(COc1ccc(C(=O)N2CC[C@H](c3ccc(F)cc3)C2)cc1)Cn1ncnn1 (stereo partly drawn) [Example 9b, ((R)-3-(4-Fluorophenyl)pyrrolidin-1-yl)(4-(2-hydroxy-2-methyl-3-(2H-tetrazol-2-yl)propoxy)phenyl)methanone]",,,IC50 [1]: 0.1 to 0.5 µM
"N#Cc1ccc(C2CCN(C(=O)c3ccc(OC[C@H](O)Cn4ncnn4)cc3)C2)cc1 (single isomer, unassigned) [Example 43a]",,,IC50 [1]: 0.1 to 0.5 µM
"O=C(c1ccc(OCC(O)Cc2cscn2)cc1)N1CC[C@H](c2ccc(F)cc2)C1 (single isomer, unassigned) [Example 35b]",,,IC50 [1]: 0.1 to 0.5 µM
"CC(O)(COc1ccc(C(=O)N2CC[C@H](c3ccc(F)cc3)C2)cc1)Cn1cnnn1 (stereo partly drawn) [Example 10b, ((R)-3-(4-Fluorophenyl)pyrrolidin-1-yl)(4-(2-hydroxy-2-methyl-3-(1H-tetrazol-1-yl)propoxy)phenyl)methanone]",,,IC50 [1]: 1 to 5 µM
"N#Cc1nnn(C[C@@H](O)COc2ccc(C(=O)N3CC[C@H](c4ccc(F)cc4)C3)cc2)n1 [Example 39, 2-((R)-3-(4-((R)-3-(4-Fluorophenyl)pyrrolidine-1-carbonyl)phenoxy)-2-hydroxypropyl)-2H-tetrazole-5-carbonitrile]",0.1 to 0.5,,
"Cc1nnnn1C[C@@H](O)COc1ccc(C(=O)N2CC[C@H](c3ccc(F)cc3)C2)cc1 [Example 21, ((R)-3-(4-fluorophenyl)pyrrolidin-1-yl)(4-((R)-2-hydroxy-3-(5-methyl-1H-tetrazol-1-yl)propoxy)phenyl)methanone]",0.5 to 1,,
"O=C(c1ccc(OCC(F)Cn2cnnn2)cc1)N1CC[C@H](c2ccc(F)cc2)C1 (single isomer, unassigned) [Example 3a]",0.1 to 0.5,,
"CC(O)(COc1ccc(C(=O)N2CC[C@H](c3ccc(F)cc3)C2)cc1)Cn1cnnn1 (single isomer, unassigned) [Example 10a]",1 to 5,,
"CC(C)(COc1ccc(C(=O)N2CC[C@H](c3ccc(F)cc3)C2)cc1)Cn1cnnn1 [Example 2, (R)-(4-(2,2-Dimethyl-3-(1H-tetrazol-1-yl)propoxy)phenyl)(3-(4-fluorophenyl)pyrrolidin-1-yl)methanone]",0.5 to 1,,
"CC(O)(COc1ccc(C(=O)N2CC[C@H](c3ccc(F)cc3)C2)cc1)Cn1ncnn1 (single isomer, unassigned) [Example 9a]",0.1 to 0.5,,
"N#Cc1ccc(C2CCN(C(=O)c3ccc(OC[C@H](O)Cn4ncnn4)cc3)C2)cc1 (single isomer, unassigned) [Example 43b]",,,IC50 [1]: 1 to 5 µM
"O=C(c1ccc(OC[C@H](O)Cn2ncnn2)cc1)N1CCC(c2ccc(F)cc2F)C1 (single isomer, unassigned) [Example 42b]",,,IC50 [1]: 0.1 to 0.5 µM
"O=C(c1ccc(OCC(F)Cn2cnnn2)cc1)N1CC[C@H](c2ccc(F)cc2)C1 (single isomer, unassigned) [Example 3b]",,≤ 0.05,IC50 [1]: < 0.1 µM
"Cn1cc(CC(O)COc2ccc(C(=O)N3CC[C@H](c4ccc(F)cc4)C3)cc2)cn1 (mixture of isomers) [Example 37, ((R)-3-(4-Fluorophenyl)pyrrolidin-1-yl)(4-(2-hydroxy-3-(1-methyl-1H-pyrazol-4-yl)propoxy)phenyl)methanone]",1 to 5,,
"Cn1nnnc1C[C@@H](O)COc1ccc(C(=O)N2CC[C@H](c3ccc(F)cc3)C2)cc1 [Example 24, ((R)-3-(4-fluorophenyl)pyrrolidin-1-yl)(4-((R)-2-hydroxy-3-(1-methyl-1H-tetrazol-5-yl)propoxy)phenyl)methanone]",0.1 to 0.5,,
"Cl.N[C@H](COc1ccc(C(=O)N2CC[C@@H](c3ccc(F)cc3)C2)cc1)Cn1ncnn1 [Example 51, (4-((S)-2-amino-3-(2H-tetrazol-2-yl)propoxy)phenyl)((S)-3-(4-fluorophenyl)pyrrolidin-1-yl)methanone, Hydrochloride]",,,"IC50 (Plasmodium falciparum, Erythrocyte, hydrochloride salt, read-out: average PfIC50 of the hydrochloride salt): > 5 µM"

# More lines, main results first:
IC50 [2] [µM],IC50 [3] [µM],SMILES,further results
0.1 to 0.5,,"O=C(c1ccc(OC[C@H](O)Cn2ncnn2)cc1)N1CCC(c2cccc(F)c2)C1 (single isomer, unassigned) [Example 41b]",
0.1 to 0.5,,"O=C(c1ccc(OC[C@H](O)Cn2cnnn2)cc1F)N1CC[C@H](c2ccc(F)cc2)C1 [Example 26, (2-fluoro-4-((R)-2-hydroxy-3-(1H-tetrazol-1-yl)propoxy)phenyl)((R)-3-(4-fluorophenyl)pyrrolidin-1-yl)methanone]",
< 0.1,,"Cn1ccc(CC(O)COc2ccc(C(=O)N3CC[C@H](c4ccc(F)cc4)C3)cc2)n1 (single isomer, unassigned) [Example 36a]",
0.1 to 0.5,,"N[C@@H](COc1ccc(C(=O)N2CC[C@H](c3ccc(F)cc3)C2)cc1)Cn1cccn1 [Example 55, (4-((R)-2-amino-3-(1H-pyrazol-1-yl)propoxy)phenyl)((R)-3-(4-fluorophenyl)pyrrolidin-1-yl)methanone, Hydrochloride]",
< 0.1,,"N[C@@H](COc1ccc(C(=O)N2CC[C@H](c3ccc(F)cc3)C2)cc1)Cn1cnnn1 [Example 46, (4-((R)-2-amino-3-(1H-tetrazol-1-yl)propoxy)phenyl)((R)-3-(4-fluorophenyl)pyrrolidin-1-yl)methanone]",
< 0.1,≤ 0.05,"O=C(c1ccc(OC[C@H](O)Cn2ccnn2)cc1)N1CC[C@H](c2ccc(Cl)cc2)C1 [Example 32, ((R)-3-(4-chlorophenyl)pyrrolidin-1-yl)(4-((R)-2-hydroxy-3-(1H-1,2,3-triazol-1-yl)propoxy)phenyl)methanone]",
< 0.1,,"O=C(c1ccc(OC[C@H](O)Cn2ncnn2)cc1F)N1CC[C@H](c2ccc(Cl)cc2)C1 [Example 34, ((R)-3-(4-chlorophenyl)pyrrolidin-1-yl) (2-fluoro-4-((R)-2-hydroxy-3-(2H-tetrazol-2-yl)propoxy)phenyl)methanone]",
< 0.1,,"N[C@@H](COc1ccc(C(=O)N2CC[C@H](c3ccc(F)cc3)C2)cc1)Cn1nccn1 [Example 53, (4-((R)-2-amino-3-(2H-1,2,3-triazol-2-yl)propoxy)phenyl)((R)-3-(4-fluorophenyl)pyrrolidin-1-yl)methanone, Hydrochloride]",
< 0.1,≤ 0.05,"O=C(c1ccc(OC[C@H](O)Cn2ncnn2)cc1F)N1CC[C@H](c2ccc(F)cc2)C1 [Example 27, (2-fluoro-4-((R)-2-hydroxy-3-(2H-tetrazol-2-yl)propoxy)phenyl)((R)-3-(4-fluorophenyl)pyrrolidin-1-yl)methanone]",
< 0.1,≤ 0.05,O=C(c1ccc(OC[C@@H](F)Cn2ncnn2)cc1)N1CC[C@H](c2ccc(F)cc2)C1 [Example 12],
< 0.1,≤ 0.05,"O=C(c1ccc(OCC(O)Cc2cscn2)cc1)N1CC[C@H](c2ccc(F)cc2)C1 (single isomer, unassigned) [Example 35a]",
< 0.1,≤ 0.05,"N[C@@H](COc1ccc(C(=O)N2CC[C@H](c3ccc(Cl)cc3)C2)cc1)Cn1ncnn1 [Example 48, (4-((R)-2-amino-3-(2H-tetrazol-2-yl)propoxy)phenyl)((R)-3-(4-chlorophenyl)pyrrolidin-1-yl)methanone]",
< 0.1,0.052,"O=C(c1ccc(OC[C@@H](O)Cn2ncnn2)cc1)N1CC[C@H](c2ccc(F)cc2)C1 [Example 8, ((R)-3-(4-fluorophenyl)pyrrolidin-1-yl)(4-((S)-2-hydroxy-3-(2H-tetrazol-2-yl)propoxy)phenyl) methanone]",
< 0.1,≤ 0.05,"O=C(c1ccc(OC[C@H](O)Cn2ncnn2)cc1)N1CCC(c2ccc(F)cc2F)C1 (single isomer, unassigned) [Example 42a]",
< 0.1,,"N[C@@H](COc1ccc(C(=O)N2CC[C@H](c3ccc(Cl)cc3)C2)cc1)Cn1cnnn1 [Example 47, (4-((R)-2-amino-3-(1H-tetrazol-1-yl)propoxy)phenyl)((R)-3-(4-chlorophenyl)pyrrolidin-1-yl)methanone]","IC50 (Plasmodium falciparum, Erythrocyte, hydrochloride salt of the example, same assay, read-out: PfIC50 Media (uM), (HCl)): < 0.1 µM"
< 0.1,≤ 0.05,"O=C(c1ccc(OC[C@H](O)Cn2ncnn2)cc1)N1CC[C@H](c2ccc(Cl)cc2)C1 [Example 29, ((R)-3-(4-chlorophenyl)pyrrolidin-1-yl)(4-((R)-2-hydroxy-3-(2H-tetrazol-2-yl)propoxy)phenyl)methanone]",
< 0.1,≤ 0.05,O=C(c1ccc(OC[C@H](F)Cn2ncnn2)cc1)N1CC[C@H](c2ccc(F)cc2)C1 [Example 11],
< 0.1,0.054,"O=C(c1ccc(OC[C@H](O)Cn2ncnn2)cc1)N1CC[C@@H](c2ccc(F)cc2)C1 [Example 13, ((S)-3-(4-Fluorophenyl)pyrrolidin-1-yl)(4-((R)-2-hydroxy-3-(2H-tetrazol-2-yl)propoxy)phenyl)methanone]",
< 0.1,≤ 0.05,"O=C(c1ccc(OC[C@H](O)Cn2cncn2)cc1)N1CC[C@H](c2ccc(F)cc2)C1 [Example 15, ((R)-3-(4-fluorophenyl)pyrrolidin-1-yl)(4-((R)-2-hydroxy-3-(1H-1,2,4-triazol-1-yl)propoxy)phenyl)methanone]",
< 0.1,≤ 0.05,"O=C(c1ccc(OC[C@H](O)Cn2cccn2)cc1)N1CC[C@H](c2ccc(F)cc2)C1 [Example 19, ((R)-3-(4-fluorophenyl)pyrrolidin-1-yl)(4-((R)-2-hydroxy-3-(1H-pyrazol-1-yl)propoxy)phenyl)methanone]",

# From patent US11453657B2 (GlaxoSmithKline Intellectual Property Development Limited, priority 2018, dated 2022)
